Source: patent US6947790B2, “Neurocognitive function EEG measurement method and system” (priority 2000, dated 2005)
Like-named read-outs stand apart in the source and are kept apart here.

How the values were obtained:
[1] = test system: healthy subjects; test: Experiment 5: subjective scales after alprazolam
Description: (§1) Experiment: The motivation behind this experiment was to evaluate whether EEG and/or behavioral indices could be used to detect cognitive side effects of a common psychiatric medication. […] It acts primarily on the GABAergic system, enhancing the inhibitory effects of this neurotransmitter. […] It adversely affects memory functions and psychomotor performance following acute administration, and its CNS effects can be detected in EEG measures. […] The experiment was performed according to a double blind, fully counterbalanced design, and all participation was fully informed and voluntary.
(§2) They then participated in three sessions: a training session and two experimental sessions. In the initial session, following informed consent procedures, subjects were familiarized with the recording methods and apparatus, and given a sham (placebo) drug dose. They then practiced the tasks until performance levels reached asymptote. […] Each session consisted of a pre-drug baseline-recording interval, followed by five post-drug recording intervals extending to 5 hours after drug administration. In the pre-drug interval and in each of the post-drug intervals EEG was recorded while subjects performed computer-presented tasks and while they rested quietly. The computerized tasks included easy and difficult versions of a sustained attention working memory task, where difficulty was manipulated by varying working memory load. Subjective scales were also used to assess drowsiness, mood, and perceived drug effects. The entire procedure, including preparation time and rest breaks lasted approximately 7 hours. Transportation home was provided for the subjects at the end of each experimental session.

[2] = test system: healthy subjects; test: Experiment 5: working memory task performance
Description: as §1, §2

[3] = test system: healthy subjects; test: Experiment 5: resting and task-related EEG and ERP; type: in vivo, human
Description: as §1, §2

[4] = in vivo; cited from earlier work
[5] = test system: healthy subjects; test: Experiment 5: NCFC index; type: in vivo, human; conditions: FIG. 11
From the text: The resulting function is structured such that improvement in cognitive function in response to some intervention results in a positive deviation of the index, and impairment in cognitive function in response to some intervention results in a negative deviation of the index. […] In the first and second periods following drug ingestion the change in index values were highly significant across the group of subjects (t(9)=−4.02, p<0.004 and t(9)=−3.54, p<0.007 for t1 and t2 respectively), with some recovery in the later test periods (p's<0.05 for the rest of the test session).

[6] = blood serum; cited from earlier work
[7] = test system: healthy normal subjects; test: Experiment 6: task performance; parameters: species or system human; conditions: in vivo
Description: (§3) The computerized tasks included a simple reaction time task and easy and difficult versions of the sustained attention WM task, in which difficulty was manipulated by varying WM load. Subjective scales were also administered to assess drowsiness, mood, and perceived drug effects. […] Transportation home was provided at the end of the sessions.

[8] = test system: healthy normal subjects; test: Experiment 6: resting and task-related EEG and ERP; type: in vivo, human
Description: The computerized tasks included a simple reaction time task and easy and difficult versions of the sustained attention WM task, in which difficulty was manipulated by varying WM load. Subjective scales were also administered to assess drowsiness, mood, and perceived drug effects. […] Transportation home was provided at the end of the sessions. Neurophysiological Alertness: To examine whether there was any neurophysiological evidence for decreased alertness, the EEG data were processed to eliminate artifacts and to compute power spectra and ERPs in each test condition. […] These physiological changes are consistent with the subjective reports of increased drowsiness following phenytoin.

[9] = Experiment 6: phenytoin blood serum levels; type: in vivo; conditions: human, oral, 10 mg/kg bodyweight, 5 hrs after 10 mg/kg bodyweight
[10] = test system: healthy normal subjects; test: Experiment 6: subjective scales after phenytoin; type: in vivo, human
Description: as §3, with “Experiment: The motivation behind this experiment was to evaluate how EEG and behavioral indices might be used to detect mild cognitive side effects of neurological medications, such as anti-epileptic drugs (AEDs). […] The” for “The”

[11] = test system: healthy normal subjects; test: Experiment 6: NCFC index
From the text: Neurocognitive Function Change Index: The hybrid multivariate function for assessing changes in neurocognitive function described in Experiment 2 was also applied to this dataset, computing degree of neurocognitive change from an average of the placebo test sessions. The resulting index scores were then computed as deviations from the pre-drug test administration index score to illustrate how neurocognitive function varied over the phenytoin test session.

[12] = test system: healthy adults; test: Chronic AED administration study: NCFC; type: in vivo, human; conditions: one subject, after 30 days of chronic treatment, FIG. 14
From the text: In Progress Study of Effects of Chronic AED Administration. Although their mechanisms of action are varied and incompletely understood, AEDs as a class tend to limit sustained repetitive firing of neurons by antagonizing mechanisms of excitation or by agonizing mechanisms of inhibition. It is likely that such effects have a measurable influence on task-related EEG or ERP parameters. Such biomarkers are being identified through exploratory analyses of data from subjects taking AEDs for 4 weeks. The study, which is being performed by Drs. F. Gilliam and K. Meador, is a randomized, double blind, crossover comparison of the cognitive and behavioral effects of chronic administration of the AEDs lamotrigine and topiramate in healthy adults. Lamotrigine and topiramate are newer AEDs that have been reported to differ in their cognitive side effects.
The study is designed such that subjects are randomized in a first treatment period to receive either lamotrigine or topiramate for 12 weeks (7 weeks of dose escalation followed by 4 weeks of maintenance therapy and then 1 week of tapering off the drug). […] In each test session, subjects have their EEG recorded from 8 scalp electrodes (positioned at AFz, F3, F4, C3, C4, Pz, PO3, PO4) and their EOG recorded from electrodes placed on the supraorbital ridge and outer canthus of each eye, while they perform the WM task and while they rest quietly.

[13] = test system: healthy adults; conditions: as reported for these AEDs; cited from earlier work

SMILES: Cc1nnc2n1-c1ccc(Cl)cc1C(c1ccccc1)=NC2 [alprazolam]
- Other subjective effects vs placebo ([1]; 1 mg alprazolam): significantly more sleepy, more “spacey/out of it”, and more clumsy
- Visual analogue scale: feel the effects of the drug, vs placebo ([1]; 1 mg alprazolam): heightened sense that they could “feel the effects of the drug”
- Onset of felt drug effects ([1]; after drug ingestion): 0.5 h
- Peak of felt drug effects ([1]; after drug ingestion): 1.5 to 2 h
- Time of largest effect on behavioral performance ([2]; after drug ingestion): 0.5 to 1 h
- Accuracy in working memory task vs placebo ([2]; easy and difficult level): less accurate
- Response speed in working memory task vs placebo ([2]; easy and difficult level): significantly slower
- Time of behavior returning towards baseline levels ([2]; post drug ingestion): 3.5 to 4 h
- P300 amplitude vs placebo ([3]; difficult task level): significantly reduced P300 amplitude
- Resting beta power vs placebo ([3]; eyes closed state): highly significant increase in beta power
- Resting theta power vs placebo ([3]; eyes closed state): did not affect theta power in the eyes closed state
- Resting alpha power vs placebo ([3]; eyes open and eyes closed states): significantly reduced alpha power in both eyes open and eyes closed states
- Resting beta power vs placebo ([3]; eyes open state): same pattern of enhancement after drug ingestion, but to a lesser extent than in the eyes closed state
- Resting theta power vs placebo ([3]; eyes open state): significant decrease in theta power in the eyes open state
- Task-related beta power vs placebo ([3]; in vivo): significantly larger on the alprazolam day than on the placebo day
- Task-related frontal midline theta vs placebo ([3]; in vivo): significantly attenuated
- Task-related slow and fast alpha signals vs placebo ([3]; in vivo): significantly attenuated
- P300 amplitude vs placebo ([3]; low load task level and simple reaction time task): did not significantly differ between placebo and alprazolam conditions
- Tpeak [4]: 1 to 2 h
- plasma half-life [4]: 6 to 16 h
- Pharmacodynamic profile: onset of cognitive impairment [5]: rapid and relatively severe

SMILES: O=C1NC(=O)C(c2ccccc2)(c2ccccc2)N1 [phenytoin]
- therapeutic range [6]: 10 to 20 µg/mL
- Accuracy and reaction time during task performance vs placebo [7]: neither accuracy nor reaction time during task performance differed on average
- Attention-related enhancement of N160 response to target stimuli ([8]; easy level of the task): significantly reduced in the phenytoin condition
- Resting alpha band power vs placebo ([8]; eyes-closed): decrease in power in the 9-11 Hz (alpha band) frequency range
- Resting theta band power vs placebo ([8]; eyes-closed, parieto-occipital electrodes): small increase in power in the 3-6 Hz (theta band) frequency range
- Effects on centroparietal P300 component ([8]; in vivo): heterogeneous
- Difficulty-related enhancement of frontal midline theta signal ([8]; low load vs high load WM task): reduced the difficulty-related enhancement of the frontal midline theta signal
- concentration at 5 h ([9]; read-out: blood serum level range): 3500 to 13600 ng/mL
- concentration at 5 h ([9]; read-out: mean blood serum level): 9000 ng/mL
- Visual analogue scale: feel the effects of the drug, vs placebo ([10]; 10 mg/kg phenytoin): heightened sense that they could “feel the effects of the drug”
- Time of strongest sensations ([10]; after drug administration): about 4 hours
- Subjective sleepiness vs placebo ([10]; in vivo): marginally more sleepy
- Pharmacodynamic profile: onset of cognitive impairment ([11]; FIG. 12): slower to develop and relatively mild
- Period of acute impairment in individual subjects ([11]; following drug ingestion): 2 to 4 h
- Average NCFC index scores ([11]; relative to pre-treatment baseline): tended to decline relative to the pre-treatment baseline interval

SMILES: CC1(C)O[C@@H]2[C@@H](CO[C@@]3(COS(N)(=O)=O)OC(C)(C)O[C@@H]23)O1 [topiramate]
- NCFC scores relative to pre-treatment baseline [12]: impaired neurocognitive function was observed in response to both drugs
- Cognitive side effect profile [13]: relatively worse cognitive side effect profile than lamotrigine

SMILES: Nc1nnc(-c2cccc(Cl)c2Cl)c(N)n1 [lamotrigine]
- NCFC scores relative to pre-treatment baseline [12]: impaired neurocognitive function was observed in response to both drugs
